In publication PMC11587507, “The Importance of Stereochemistry in 5-HT7R Modulation—A Case Study of Hydantoin Derivatives” (ACS Chemical Neuroscience, 2024):

Tests used:
[1] = target: dopamine D2LR (Homo sapiens, UniProt P14416); assay: Radioligand binding assay, [3H]-raclopride displacement; details: mean ± SD from two independent measurements; read-out: Ki D2
Description: (§1) Cell pellets were thawed and homogenized in 10 vol of assay buffer using an Ultra Turrax tissue homogenizer and centrifuged twice at 35 000 g for 15 min at 4 °C, with incubation for 15 min at 37 °C in between. The composition of the assay buffers was as follows: for 5-HT1AR: 50 mM Tris HCl, 0.1 mM EDTA, 4 mM MgCl2, 10 μM pargyline and 0.1% ascorbate; for 5-HT2AR: 50 mM Tris HCl, 0.1 mM EDTA, 4 mM MgCl2 and 0.1% ascorbate; for 5- HT7bR: 50 mM Tris HCl, 4 mM MgCl2, […] and 0.1% ascorbate; and for dopamine D2LR: 50 mM Tris HCl, 1 mM EDTA, 4 mM MgCl2, 120 mM NaCl, 5 mM KCl, 1.5 mM CaCl2 and 0.1% ascorbate. All assays were incubated in a total volume of […] in 96-well microtiter plates for 1 h at 37 °C, except 5-HT2AR which was incubated at 27 °C. The process of equilibration was terminated by rapid filtration through Unifilter plates with a 96-well cell harvester, and radioactivity retained on the filters was quantified on a Microbeta plate reader (PerkinElmer, USA). For displacement studies, the assay samples contained as radioligands (PerkinElmer, USA): 2.5 nM [^3H]-8-OH-DPAT (135.2 Ci/mmol) for 5-HT1AR; 1 nM [3H]-ketanserin (53.4 Ci/mmol) for 5- HT2AR; 0.8 nM [3H]-5- CT (39.2 Ci/mmol) for 5-HT7R or 2.5 nM [3H]-raclopride (72 Ci/mmol) for D2LR. Nonspecific binding was defined with […] of 5-HT in 5-HT7R binding experiments, whereas […] were used in 5-HT2AR and D2L assays, respectively. Each compound was tested in triplicate at 7 concentrations (10^–10–10^–4 M). The inhibition constants (Ki) were calculated using the Cheng–Prusoff equation.[48] Results were expressed as means of at least two separate experiments.

[2] = target: T1, 5-HT1AR (Homo sapiens, UniProt P08908); assay: Radioligand binding assay, [3H]-8-OH-DPAT displacement; details: mean ± SD from two independent measurements; read-out: Ki 5-HT1A
T1 sequence (P08908 1-422): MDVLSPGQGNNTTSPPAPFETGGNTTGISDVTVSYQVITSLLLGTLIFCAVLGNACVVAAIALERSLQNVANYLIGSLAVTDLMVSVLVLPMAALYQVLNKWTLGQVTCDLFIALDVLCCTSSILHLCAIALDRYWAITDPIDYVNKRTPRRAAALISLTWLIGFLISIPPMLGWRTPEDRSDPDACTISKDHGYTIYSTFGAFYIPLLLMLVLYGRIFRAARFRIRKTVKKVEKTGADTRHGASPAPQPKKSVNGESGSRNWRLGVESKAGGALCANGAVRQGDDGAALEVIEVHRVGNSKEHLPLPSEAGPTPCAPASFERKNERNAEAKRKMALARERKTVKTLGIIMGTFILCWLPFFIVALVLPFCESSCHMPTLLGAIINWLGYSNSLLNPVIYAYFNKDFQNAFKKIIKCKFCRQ
Description: as §1

[3] = tested on: immobility time; assay: Forced swim test (FST, Porsolt's test) in mice; type: in vivo; details: 60 min before test
Description: (§2) The behavioral experiments were performed on male BalbC mice weighing 20–25 g, n = 333. The animals were purchased from the Animal House at the Faculty of Pharmacy, Jagiellonian University Medical College, Krakow, Poland. Mice were kept in groups of ten in Makrolon type 3 cages (dimensions 26.5 × 15 × 42 cm). The animals were kept in an environmentally controlled room (ambient temperature 22 ± 2 °C; relative humidity 50–60%; 12:12 light: dark cycle; and lights on at 8:00). They were allowed to acclimatize with the environment enriched by nesting material, tooth grinding material, houses, and toys for 1 week before commencement of the experiments. During acclimatization, mice were accustomed to the presence of female experimenters and their appropriate manner of animals’ restraint, i.e., cupping each separate mouse in open hands, according to the 3Rs recommendations (handling).[50],[51] Standard laboratory food (Sniff M-Z) and filtered water were freely available. All the experiments were conducted in the light phase between 9 AM and 2 PM. Experimental groups consisted of 6–10 randomly selected animals, depending on the experiment, and each animal was used only once. The experiments were performed by an observer who was unaware of the treatment administered. All the experimental procedures with mice were carried out under EU Directive 2010/63/EU and were approved by the Local Ethics Commission for Animal Experiments of Jagiellonian University in Krakow (Approval nos.:297/2019).
(§3) Compounds were injected once intraperitoneally (i.p.) 60 min before tests, at a volume of 10 mL/kg. Control animals received a vehicle injection according to the same schedule.
The FST experiment was carried out according to the method of Porsolt et al.[52] The total duration of immobility was recorded during the last 4 min of this 6 min period. The reduction of immobility time compared to the control was a measure of antidepressant properties of the tested compound. A mouse was regarded as immobile when it remained floating on water, making only small movements to keep its head above it.

[4] = tested on: punished crossings; assay: Four-plate test (FPT) in mice; type: in vivo
Description: as §2, §3
The four-plate apparatus (Bioseb, Pinellas Park, USA) was used for tests. Following a 15 s habituation period, the animal’s motivation to explore a novel environment is suppressed by an electric foot shock (0.8 mA, 0.5 s) every time it moves from one plate to another during a 1 min test session. This action is referred to as a “punished crossing” and is followed by a 3 s shock interval, during which the animal can move across plates without receiving a shock.[53]

[5] = tested on: locomotor activity; assay: Spontaneous locomotor activity in mice; type: in vivo
Description: as §2, §3
Locomotor activity was recorded with an Opto M3 multichannel activity monitor (Columbus Instruments, Columbus, USA). […] According to the 3Rs recommendations,[54] locomotor activity was assessed for the minimal active doses obtained in FST and/or FPT to ensure that detected antidepressant-/anxiolytic-like effects are not the result of increased motility of mice.

[6] = target: 5-HT2AR (Homo sapiens, UniProt P28223); assay: Radioligand binding assay, [3H]-ketanserin displacement; details: mean ± SD from two independent measurements; read-out: Ki 5-HT2A
Description: as §1

[7] = target: T2, NK1 (Homo sapiens, UniProt P25103); assay: NK1 screening at 1 µM (Eurofins Cerep); type: cell-based; details: read-out: NK1 % inhibition of control agonist response
T2 construct: Eurofins Cerep
Description: (§4) 1.In vitro evaluation towards another related protein target (GABA, NK 1)
(§5) Table S2. Affinity results to GABA and NK 1 […]
(§6) Screening at 1 µM Screening at 1 µM
(§7) (% inhibition of control (% of inhibtion of control agonist response) specific binding) […]
(§8) adata are presented as the mean ± SD from two independent measurements
(§9) The above biological screening have been performed at Eurofins Cerep (2, rue du Professeur GARGOUÏL, B.P. 30001, 86 600 Celle l'Evescault, France according to previously described […]
(§10) Tsuji, A. et al. (1988), Antimicrob. Agents Chemother., 32: 190-194.
(§11) Eistetter, H.R. et al. (1992), Glia, 6: 89-95.
(§12) Detailed parameters for NK1 assay:
(§13) Detailed parameters for GABA (non-specific) assay: […]

[8] = tested on: GABA (non-specific); assay: GABA (non-specific) binding screening at 1 µM (Eurofins Cerep)
Description: as §4, §5, §6, §7, §8, §9, §10, §11, §12, §13

[9] = target: T3, 5-HT7R (Homo sapiens, UniProt P34969); assay: Radioligand binding assay, [3H]-5-CT displacement; details: for Ki: mean ± SD from two independent measurements, read-out: Ki 5-HT7
Description: as §1
Target sequence in this assay (P34969 1-432): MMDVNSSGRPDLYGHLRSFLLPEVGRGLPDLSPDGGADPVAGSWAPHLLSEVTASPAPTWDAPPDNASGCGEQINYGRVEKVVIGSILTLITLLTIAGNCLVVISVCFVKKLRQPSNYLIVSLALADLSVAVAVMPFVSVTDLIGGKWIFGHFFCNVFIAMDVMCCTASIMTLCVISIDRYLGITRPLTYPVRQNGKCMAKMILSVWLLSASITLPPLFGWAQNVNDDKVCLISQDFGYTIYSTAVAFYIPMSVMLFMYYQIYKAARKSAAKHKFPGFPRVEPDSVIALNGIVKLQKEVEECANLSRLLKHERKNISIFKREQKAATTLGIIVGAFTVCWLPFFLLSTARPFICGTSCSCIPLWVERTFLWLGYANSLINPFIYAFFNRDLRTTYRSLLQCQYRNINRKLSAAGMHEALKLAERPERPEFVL

[10] = target: T3, 5-HT7R; assay: cAMP functional assay (HTRF), antagonist effect, CHO cells; type: cell-based
Description: The cAMP concentration was measured using the HTRF method. Adenylate cyclase activity was expressed as the percentage of the maximal effect obtained with 300 nM serotonin. The compounds were tested at 7 concentrations (10^–12–10^–6 M) in the h5-HT7 antagonist effect.
Target sequence in this assay (P34969 1-445 isoform P34969-2): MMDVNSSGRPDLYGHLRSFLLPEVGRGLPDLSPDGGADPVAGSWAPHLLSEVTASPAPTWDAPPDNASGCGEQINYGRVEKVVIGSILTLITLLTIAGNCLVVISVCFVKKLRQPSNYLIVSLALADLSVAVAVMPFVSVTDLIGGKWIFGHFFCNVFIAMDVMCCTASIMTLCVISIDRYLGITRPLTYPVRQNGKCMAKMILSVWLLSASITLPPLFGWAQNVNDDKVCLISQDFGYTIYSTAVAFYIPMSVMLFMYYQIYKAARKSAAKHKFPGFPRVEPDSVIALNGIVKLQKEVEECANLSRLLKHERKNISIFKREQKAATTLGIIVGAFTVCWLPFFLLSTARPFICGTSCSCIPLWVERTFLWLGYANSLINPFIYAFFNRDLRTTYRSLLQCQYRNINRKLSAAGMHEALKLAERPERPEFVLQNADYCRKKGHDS

Sequence of dopamine D2LR (P14416 whole entry): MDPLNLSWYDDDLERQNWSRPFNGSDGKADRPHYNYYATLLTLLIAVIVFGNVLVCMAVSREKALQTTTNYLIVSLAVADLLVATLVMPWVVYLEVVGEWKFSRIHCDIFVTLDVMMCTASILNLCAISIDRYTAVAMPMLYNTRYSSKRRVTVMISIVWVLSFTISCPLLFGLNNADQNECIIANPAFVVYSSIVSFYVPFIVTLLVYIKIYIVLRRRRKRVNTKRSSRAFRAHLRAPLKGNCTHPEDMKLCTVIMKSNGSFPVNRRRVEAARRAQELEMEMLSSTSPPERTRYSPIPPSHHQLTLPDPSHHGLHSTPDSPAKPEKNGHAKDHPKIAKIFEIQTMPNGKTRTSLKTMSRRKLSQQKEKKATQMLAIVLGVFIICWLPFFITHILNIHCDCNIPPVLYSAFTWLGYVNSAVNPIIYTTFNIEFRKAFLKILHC
Sequence of 5-HT2AR (P28223 whole entry): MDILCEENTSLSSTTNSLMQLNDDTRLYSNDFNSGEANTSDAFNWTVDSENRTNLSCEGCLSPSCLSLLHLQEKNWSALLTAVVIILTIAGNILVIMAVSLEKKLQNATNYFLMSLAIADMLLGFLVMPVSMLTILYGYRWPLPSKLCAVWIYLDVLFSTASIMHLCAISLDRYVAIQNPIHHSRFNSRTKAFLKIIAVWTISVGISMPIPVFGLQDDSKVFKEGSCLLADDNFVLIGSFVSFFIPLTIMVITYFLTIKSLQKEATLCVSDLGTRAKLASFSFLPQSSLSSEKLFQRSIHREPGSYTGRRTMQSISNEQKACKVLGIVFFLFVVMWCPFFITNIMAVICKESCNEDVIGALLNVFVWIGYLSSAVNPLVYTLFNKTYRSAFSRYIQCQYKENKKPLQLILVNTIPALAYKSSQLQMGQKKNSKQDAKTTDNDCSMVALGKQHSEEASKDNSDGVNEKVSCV
T2 sequence (P25103 whole entry): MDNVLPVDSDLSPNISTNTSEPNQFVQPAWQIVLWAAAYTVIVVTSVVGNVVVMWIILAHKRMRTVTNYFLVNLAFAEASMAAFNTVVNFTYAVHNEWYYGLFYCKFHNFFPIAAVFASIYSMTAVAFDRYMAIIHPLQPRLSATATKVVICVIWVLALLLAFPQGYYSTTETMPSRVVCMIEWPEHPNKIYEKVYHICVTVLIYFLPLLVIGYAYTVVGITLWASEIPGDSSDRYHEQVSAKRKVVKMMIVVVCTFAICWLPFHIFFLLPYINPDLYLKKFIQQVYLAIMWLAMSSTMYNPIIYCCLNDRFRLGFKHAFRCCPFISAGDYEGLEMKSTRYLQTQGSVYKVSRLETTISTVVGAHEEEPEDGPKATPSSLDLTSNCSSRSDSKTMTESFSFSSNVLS

With `COc1ccccc1N1CCN(CC(O)CN2C(=O)NC(C)(c3ccc(F)cc3)C2=O)CC1` (centres unmarked) [Compound 1] the Ki [1] was 715 ± 163 nM, the Ki [2] was 121 ± 18 nM and the “decrease of immobility time vs vehicle” value ([3]; 2.5 mg/kg i.p.) was “about 32%”. For the same compound, the “decrease of immobility time vs vehicle” value ([3]; 5 mg/kg i.p.) was roughly 25%, the anxiolytic-like activity ([4]; i.p., all doses tested) was “inactive” and the “locomotor activity number of crossings ± SEM during 1 min” value ([5]; 2.5 mg/kg i.p.) was 10.50 ± 4.11; NS. For the same compound, the “locomotor activity number of crossings ± SEM during 60 min” value ([5]; 2.5 mg/kg i.p.) was 183.75 ± 33.41; p < 0.001.
For `COc1ccccc1N1CCN(C[C@H](O)CN2C(=O)N[C@](C)(c3ccc(F)cc3)C2=O)CC1` [Compound 5.1, (R)-5-(4-Fluorophenyl)-3-((S)-2-hydroxy-3-(4-(2-methoxyphenyl)piperazin-1-yl)propyl)-5-methylimidazolidine-2,4-dione], the Ki [1] was 462 ± 94 nM and the Ki [2] was 939 ± 153 nM.
With `COc1ccccc1N1CCN(C[C@@H](O)CN2C(=O)N[C@](C)(c3ccc(F)cc3)C2=O)CC1` [Compound 5.2, (R)-5-(4-Fluorophenyl)-3-((R)-2-hydroxy-3-(4-(2-methoxyphenyl)piperazin-1-yl)propyl)-5-methylimidazolidine-2,4-dione] the Ki [1] was 712 ± 101 nM, the Ki [2] was 1880 ± 351 nM and the Ki [6] was 41100 nM.
Compound `COc1ccccc1N1CCN(C[C@H](O)CN2C(=O)N[C@@](C)(c3ccc(F)cc3)C2=O)CC1` [Compound 5.3, (S)-5-(4-Fluorophenyl)-3-((S)-2-hydroxy-3-(4-(2-methoxyphenyl)piperazin-1-yl)propyl)-5-methylimidazolidine-2,4-dione] has a Ki [1] of 1110 ± 137 nM and a Ki [2] of 219 ± 43 nM.
Work on `COc1ccccc1N1CCN(C[C@@H](O)CN2C(=O)N[C@@](C)(c3ccc(F)cc3)C2=O)CC1` [Compound 5.4, (S)-5-(4-Fluorophenyl)-3-((R)-2-hydroxy-3-(4-(2-methoxyphenyl)piperazin-1-yl)propyl)-5-methylimidazolidine-2,4-dione] yielded a Ki [1] of 888 ± 97 nM, a Ki [2] of 306 ± 71 nM and a Ki [6] of 21800 nM. For the same compound, the “decrease of immobility time vs vehicle” value ([3]; 5 mg/kg i.p.) was 25%, the “decrease of immobility time vs vehicle” value ([3]; 10 mg/kg i.p.) was 20% and the anxiolytic-like activity ([4]; i.p., all doses tested) was “inactive”. For the same compound, the “locomotor activity number of crossings ± SEM during 3–6 min” value ([5]; 5 mg/kg i.p.) was 138.75 ± 36.61; NS, the “locomotor activity number of crossings ± SEM during 1 min” value ([5]; 5 mg/kg i.p.) was 18.50 ± 8.00; NS and the “locomotor activity number of crossings ± SEM during 60 min” value ([5]; 5 mg/kg i.p.) was 716.25 ± 117.75; p < 0.001. For the same compound, the inhibition at 1 µM [7] was 2.9% and the “GABA (non-specific) % of inhibition of control specific binding” value [8] was 7%.
Compound `C[C@]1(c2ccc(F)cc2)NC(=O)N(C[C@@H](O)CN2CCN(C(c3ccccc3)c3ccccc3)CC2)C1=O` [Compound 6.1, (R)-3-((S)-3-(4-Benzhydrylpiperazin-1-yl)-2-hydroxypropyl)-5-(4-fluorophenyl)-5-methylimidazolidine-2,4-dione] has a Ki [1] of 463 ± 75 nM, a Ki [6] of 12300 nM and a Ki [9] of 2900 ± 461 nM.
`C[C@]1(c2ccc(F)cc2)NC(=O)N(C[C@H](O)CN2CCN(C(c3ccccc3)c3ccccc3)CC2)C1=O` [Compound 6.2, (R)-3-((R)-3-(4-Benzhydrylpiperazin-1-yl)-2-hydroxypropyl)-5-(4-fluorophenyl)-5-methylimidazolidine-2,4-dione] gave a Ki [1] of 1520 ± 331 nM, a Ki [6] of 11400 nM and a Ki [9] of 9090 ± 1700 nM.
Compound `C[C@@]1(c2ccc(F)cc2)NC(=O)N(C[C@@H](O)CN2CCN(C(c3ccccc3)c3ccccc3)CC2)C1=O` [Compound 6.3, (S)-3-((S)-3-(4-Benzhydrylpiperazin-1-yl)-2-hydroxypropyl)-5-(4-fluorophenyl)-5-methylimidazolidine-2,4-dione] has a Ki [1] of 312 ± 52 nM, a Ki [6] of 4130 ± 983 nM and a Ki [9] of 120 ± 27 nM.
For `C[C@@]1(c2ccc(F)cc2)NC(=O)N(C[C@H](O)CN2CCN(C(c3ccccc3)c3ccccc3)CC2)C1=O` [Compound 6.4, (S)-3-((R)-3-(4-Benzhydrylpiperazin-1-yl)-2-hydroxypropyl)-5-(4-fluorophenyl)-5-methylimidazolidine-2,4-dione], the Ki [1] was 511 ± 96 nM, the Ki [2] was 8930 ± 1840 nM and the Ki [6] was 5790 ± 1070 nM. The Ki [9] was 8 ± 3 nM, the “fold higher 5-HT7R affinity in comparison to 2” value ([9]; ratio of Ki values) was roughly 10 fold and the “intrinsic activity at 5-HT7R” value ([10]; cAMP functional test) was “antagonists”. For the same compound, the IC50 ([10]; cAMP, CHO cells, h5-HT7 antagonist effect vs 300 nM serotonin) was 113 ± 25 nM, the Kb ([10]; cAMP, CHO cells, h5-HT7 antagonist effect, read-out: Kb ± SEM) was 14 ± 3 nM and the “decrease of immobility time vs vehicle” value ([3]; 2.5 mg/kg i.p.) was 29%. For the same compound, the anxiolytic-like activity ([4]; 5 mg/kg i.p.) was “did not reach significant levels”, the anxiolytic-like activity ([4]; doses of 1.25, 2.5 and 10 mg/kg i.p.) was “active” and the “increase of number of punished crossings vs vehicle” value ([4]; i.p., active doses) was “about 60%”. The “locomotor activity number of crossings ± SEM during 3–6 min” value ([5]; 1.25 mg/kg i.p.) was 63.75 ± 25.93; NS, the “locomotor activity number of crossings ± SEM during 1 min” value ([5]; 1.25 mg/kg i.p.) was 4.25 ± 0.46; NS and the “locomotor activity number of crossings ± SEM during 60 min” value ([5]; 1.25 mg/kg i.p.) was 694.25 ± 78.90; NS. The “locomotor activity number of crossings ± SEM during 3–6 min” value ([5]; 2.5 mg/kg i.p.) was 105.75 ± 49.57; NS, the “locomotor activity number of crossings ± SEM during 60 min” value ([5]; 2.5 mg/kg i.p.) was 922.50 ± 74.78; p < 0.001 and the inhibition at 1 µM [7] was -4.4%. The “GABA (non-specific) % of inhibition of control specific binding” value [8] was 26%.
